Assay results reported in the Biogen ADME set (Fang et al. 2023).
≈ marks a conversion by molar mass, not a printed value.

Details: for aqueous solubility: pH 6.8

Compound `N#Cc1ccc2[nH]c(O)c(-c3ccc(CN4CCOCC4)cn3)c2c1` has an MDR1-MDCK efflux ratio of 26, a fraction unbound, rat plasma of 0.118 and an intrinsic clearance, human liver microsomes of 11.2 mL/min/kg. The intrinsic clearance, rat liver microsomes was 70.8 mL/min/kg and the aqueous solubility was 25.9 µg/mL (≈ 77.6 µM).
With `COc1ncccc1CNc1ncnc2c1cnn2C` the MDR1-MDCK efflux ratio was 0.967, the intrinsic clearance, human liver microsomes was no more than 4.74 mL/min/kg and the intrinsic clearance, rat liver microsomes was 28.8 mL/min/kg. It also gave an aqueous solubility of 46.6 µg/mL (≈ 172 µM).
In the case of `CC(C)NC(=O)C1(Cc2ccccc2-c2ccncc2)CCOCC1`, the MDR1-MDCK efflux ratio is reported as 51.7, the intrinsic clearance, human liver microsomes is reported as 269 mL/min/kg and the intrinsic clearance, rat liver microsomes is reported as 981 mL/min/kg.
For `Cc1ccc(Cn2nc(C(=O)N[C@@H]3C(C)(C)[C@@H]4CC[C@@]3(C)C4)cc2-c2ccc(Cl)c(C)c2)cc1`, the MDR1-MDCK efflux ratio was 0.636, the intrinsic clearance, human liver microsomes was 181 mL/min/kg and the intrinsic clearance, rat liver microsomes was 676 mL/min/kg. For the same compound, the aqueous solubility was 1.29 µg/mL (≈ 2.71 µM).
Compound `O=C(CN1CCCC(c2cncc(-c3cccc(Cl)c3)n2)C1)N1CCCC1` (stereo not drawn) has an MDR1-MDCK efflux ratio of 1.73, an intrinsic clearance, human liver microsomes of 86.6 mL/min/kg and an intrinsic clearance, rat liver microsomes of 1080 mL/min/kg. The aqueous solubility was 65.8 µg/mL (≈ 171 µM).
In the case of `Cc1cccc(NCCc2cn3c(n2)CCCC3)n1`, the MDR1-MDCK efflux ratio is reported as 3.58, the intrinsic clearance, human liver microsomes is reported as no more than 4.74 mL/min/kg and the intrinsic clearance, rat liver microsomes is reported as 971 mL/min/kg. For the same compound, the aqueous solubility was 31 µg/mL (≈ 121 µM).
`N#CC1(C(=O)NCC2(C3CC3)CC2)CCCCC1` gave an MDR1-MDCK efflux ratio of 0.713, an intrinsic clearance, human liver microsomes of 18.9 mL/min/kg and an intrinsic clearance, rat liver microsomes of 1080 mL/min/kg.
In the case of `Cn1c(=O)cc(N2CCC[C@@H](N)C2)n(Cc2cc(F)ccc2C#N)c1=O`, the intrinsic clearance, human liver microsomes is reported as no more than 4.74 mL/min/kg and the intrinsic clearance, rat liver microsomes is reported as no more than 10.7 mL/min/kg.
With `Cc1ccc(F)c(-c2noc(N)c2C)c1` the MDR1-MDCK efflux ratio was 0.523, the intrinsic clearance, human liver microsomes was 19.6 mL/min/kg and the intrinsic clearance, rat liver microsomes was 293 mL/min/kg.
Compound `CN(Cc1ccc(Cl)cc1)C(=O)c1ccc(-n2ccnc2)nc1` has an MDR1-MDCK efflux ratio of 1.08, an intrinsic clearance, human liver microsomes of no more than 4.74 mL/min/kg and an intrinsic clearance, rat liver microsomes of 46.4 mL/min/kg. The aqueous solubility was 65.1 µg/mL (≈ 199 µM).
With `CCCS(=O)(=O)N1CCCC(C(=O)N2CCc3ccccc3C2)C1` (stereo not drawn) the MDR1-MDCK efflux ratio was 1.87, the intrinsic clearance, human liver microsomes was 62 mL/min/kg and the intrinsic clearance, rat liver microsomes was 1010 mL/min/kg. It also gave an aqueous solubility of 54.8 µg/mL (≈ 156 µM).
For `O=C(CN1CCCC(c2ccc3cn[nH]c3n2)C1)N1CCCC1` (stereo not drawn), the MDR1-MDCK efflux ratio was 30.2, the intrinsic clearance, human liver microsomes was 9.13 mL/min/kg and the intrinsic clearance, rat liver microsomes was 337 mL/min/kg. For the same compound, the aqueous solubility was 38 µg/mL (≈ 121 µM).
With `CN1CCC(NS(=O)(=O)C2CN(C(=O)c3cccc(Cl)c3)C2)CC1` the MDR1-MDCK efflux ratio was 28.4, the intrinsic clearance, human liver microsomes was 4.94 mL/min/kg and the intrinsic clearance, rat liver microsomes was no more than 10.7 mL/min/kg. It also gave an aqueous solubility of 56.8 µg/mL (≈ 153 µM).
Compound `CC(=O)Nc1ncc(CN2CCCC[C@@H]2C)s1` has an MDR1-MDCK efflux ratio of 1.31, a fraction unbound, human plasma of 1 and a fraction unbound, rat plasma of 0.838. For the same compound, the intrinsic clearance, human liver microsomes was no more than 4.74 mL/min/kg and the intrinsic clearance, rat liver microsomes was 14.1 mL/min/kg.
Work on `CCN1CCc2c(sc(NC(=O)CS(=O)(=O)c3ccccc3)c2-c2nc3ccccc3s2)C1` yielded an intrinsic clearance, human liver microsomes of 71.6 mL/min/kg and an intrinsic clearance, rat liver microsomes of 435 mL/min/kg.
Work on `CN(C(=O)CNC(=O)c1ccccc1OCC(=O)Nc1ccc(Br)cc1)c1ccccc1` yielded an MDR1-MDCK efflux ratio of 3.43 and an aqueous solubility of 0.35 µg/mL (≈ 0.705 µM).
Compound `c1ccc(Cc2ccccc2-c2nnc(-c3cccnc3)o2)cc1` has an MDR1-MDCK efflux ratio of 0.45 and an aqueous solubility of 0.22 µg/mL (≈ 0.702 µM).
Compound `CSc1ccc(-c2ccc3n(c2=O)C[C@@H]2CNC[C@H]3C2)cc1` has an MDR1-MDCK efflux ratio of 1.42, an intrinsic clearance, human liver microsomes of 5.01 mL/min/kg and an intrinsic clearance, rat liver microsomes of 19.3 mL/min/kg. It also gave an aqueous solubility of 51.2 µg/mL (≈ 164 µM).
Compound `CN(C)c1nccc(N2CCN(CCCCCF)CC2)n1` has an MDR1-MDCK efflux ratio of 0.419, an intrinsic clearance, human liver microsomes of 32.4 mL/min/kg and an intrinsic clearance, rat liver microsomes of 1440 mL/min/kg.
`COc1cc2c(cc1OC)CN(CN1C(=O)c3cccc4cccc1c34)CC2` gave an intrinsic clearance, human liver microsomes of 131 mL/min/kg, an intrinsic clearance, rat liver microsomes of 504 mL/min/kg and an aqueous solubility of 53.4 µg/mL (≈ 143 µM).
Compound `Cc1ccc(OCc2nc3cc(N)ccc3[nH]2)cc1` has an intrinsic clearance, human liver microsomes of no more than 4.74 mL/min/kg, an intrinsic clearance, rat liver microsomes of 49.1 mL/min/kg and an aqueous solubility of 16.8 µg/mL (≈ 66.1 µM).
For `Cc1nnc(-c2ccc(N3CCC(Oc4cc(F)ccc4Cl)CC3)nn2)o1`, the MDR1-MDCK efflux ratio was 0.65, the fraction unbound, human plasma was 0.0145 and the intrinsic clearance, human liver microsomes was no more than 4.74 mL/min/kg.
`Cc1csc(N(C(=O)c2cc3c(C)nn(C)c3s2)C2CC2)n1` gave an MDR1-MDCK efflux ratio of 0.642, an intrinsic clearance, human liver microsomes of 121 mL/min/kg and an intrinsic clearance, rat liver microsomes of 255 mL/min/kg. The aqueous solubility was 57.3 µg/mL (≈ 172 µM).
For `COc1cccc(CC(=O)N2CCOC(c3cc(Nc4nnc(C)s4)cc(C)n3)C2)c1` (stereo not drawn), the MDR1-MDCK efflux ratio was 10.7, the intrinsic clearance, human liver microsomes was 68.6 mL/min/kg and the intrinsic clearance, rat liver microsomes was 308 mL/min/kg.
For `CC(C)N(C(=O)Cn1cccc2cc(-c3ccco3)nc1-2)C(C)C`, the MDR1-MDCK efflux ratio was 1.81, the intrinsic clearance, human liver microsomes was 373 mL/min/kg and the intrinsic clearance, rat liver microsomes was 1790 mL/min/kg.
With `C[C@H]1NC(=O)N(CCc2nc(C(F)(F)F)cs2)C1=O` the MDR1-MDCK efflux ratio was 1.6, the intrinsic clearance, human liver microsomes was 5.83 mL/min/kg and the intrinsic clearance, rat liver microsomes was 24.8 mL/min/kg.
Compound `Cc1ccc(-c2ccc3c(ccc4sc5c(c43)NC[C@@H](C)NC5=O)n2)cn1` has an MDR1-MDCK efflux ratio of 5.49 and an aqueous solubility of 0.2 µg/mL (≈ 0.534 µM).
Work on `CN(CCOc1ccccc1)CC(=O)NCCc1ccccc1` yielded an MDR1-MDCK efflux ratio of 0.728, an intrinsic clearance, human liver microsomes of 267 mL/min/kg and an intrinsic clearance, rat liver microsomes of 5420 mL/min/kg.
